Experiment: Retrospective analysis of tacrolimus trough levels (TTL) under SOC dosing, 30 days after pediatric liver transplantation
Format: in vivo, pediatric liver transplant patients
Procedure: CURATE.AI requires two components to be supplied into the platform as inputs: the administered tacrolimus dose in mg (dose) and the corresponding TTL in ng/ml (response) to generate a personalized profile for each patient. […] The response input was the corresponding TTL response measured the next day, right before the morning dose. Days with two measurements of TTL (taken in the morning and evening) instead of one, which is the standard frequency, were excluded. TTL measurements <2 ng/ml were assessed to be inaccurate as the measurement equipment was unable to provide resolution for TTL<2 ng/ml, and were thus excluded. All measurements in the records were only taken once each. Doses recorded from day 30 post-transplant onwards were not included as part of this study since it is during the initial post-transplant period that fluctuations in TTL are common; thereby requiring frequent adjustments in drug dosing. […] Doses recorded from the day of discharge onwards were assessed to be unreliable, as confirmation of the doses administered was not possible, and thus excluded. This study used dose-response pairs over a set of consecutive days for each patient for the analysis by CURATE.AI. Dose ranges were categorized as low (<2 mg), medium (2 mg to <4 mg), and high (≥4 mg).
The normality of the data distribution was tested with the Shapiro-Wilk test. Continuous variables were represented as mean (standard deviation (SD)) or median (interquartile range (IQR)), depending on the normality of the data type. Two-sided Wilcoxon signed-rank test was used to compare the medians of two non-parametric groups. Two-sided paired t-test was used to compare the means of two related parametric groups. The statistical significance was defined as p<0.05. All analyses were performed in Python (version 3.9.13).
The grey region represents the therapeutic range of between and inclusive of 7 and 10 ng/ml. Blue and orange markers represent TTL outside and within the therapeutic range, respectively. […]

C=CC[C@@H]1/C=C(\C)C[C@H](C)C[C@H](OC)[C@H]2O[C@@](O)(C(=O)C(=O)N3CCCC[C@H]3C(=O)O[C@H](/C(C)=C/[C@@H]3CC[C@@H](O)[C@H](OC)C3)[C@H](C)[C@@H](O)CC1=O)[C@H](C)C[C@@H]2OC [tacrolimus]
days within the therapeutic range (TTL 7 to 10 ng/ml), mean (16 patients, mean (SD)): 42.18 % of days | mean TTL (tacrolimus trough level) (all 16 patients, first 30 days post-transplant, mean (SD)): 8.79 ng/mL | time to first achieve the therapeutic range (TTL 7 to 10 ng/ml), median (median (IQR)): 5.00 days

From patent US20260174747A1, “COMPUTER IMPLEMENTED METHODS OF GENERATING DOSE RECOMMENDATIONS” (National University of Singapore, priority 2022, published 2026)
